One may read the pIC50 as the negative decadic logarithm of the IC50, by convention in mol/L.

This is an account of results in ChEMBL document CHEMBL1158093, “Isolation, structure elucidation, and biological evaluation of 15-amido-3-demethoxy-2alpha,3alpha-methylenedioxyerythroculine, a new alkaloid from Hyperbaena valida” (J Nat Prod, 2006).

Test [1] has as its target T1, Neuronal acetylcholine receptor; alpha3/beta4 (Rattus norvegicus, UniProt P04757+P12392). Nature of the test: Activity at rat alpha3beta4 nicotinic receptor expressed in KXalpha-3-beta-4R2 cells assessed as nicotine-induced 86Rb+ efflux. The class given is cell-based.
Test [2] deals with Neuronal acetylcholine receptor; alpha3/beta4 (Rattus norvegicus) (UniProt P04757+P12392). Nature of the test: Agonist activity at rat alpha3beta4 nicotinic receptor expressed in KXalpha-3-beta-4R2 cells assessed as nicotine-induced calcium fluorescence. Format: functional, cell-based.
Test [3] addresses T1, Neuronal acetylcholine receptor; alpha3/beta4. Nature of the test: Antagonist activity at rat alpha3beta4 nicotinic receptor expressed in KXalpha-3-beta-4R2 cells assessed as nicotine-induced calcium fluorescence. Format: functional, cell-based.

pIC50: −log10 of the molar value. Calls of active or inactive are those of the source. No cut-off for these calls is given here.

T1 sequence (P04757 whole entry): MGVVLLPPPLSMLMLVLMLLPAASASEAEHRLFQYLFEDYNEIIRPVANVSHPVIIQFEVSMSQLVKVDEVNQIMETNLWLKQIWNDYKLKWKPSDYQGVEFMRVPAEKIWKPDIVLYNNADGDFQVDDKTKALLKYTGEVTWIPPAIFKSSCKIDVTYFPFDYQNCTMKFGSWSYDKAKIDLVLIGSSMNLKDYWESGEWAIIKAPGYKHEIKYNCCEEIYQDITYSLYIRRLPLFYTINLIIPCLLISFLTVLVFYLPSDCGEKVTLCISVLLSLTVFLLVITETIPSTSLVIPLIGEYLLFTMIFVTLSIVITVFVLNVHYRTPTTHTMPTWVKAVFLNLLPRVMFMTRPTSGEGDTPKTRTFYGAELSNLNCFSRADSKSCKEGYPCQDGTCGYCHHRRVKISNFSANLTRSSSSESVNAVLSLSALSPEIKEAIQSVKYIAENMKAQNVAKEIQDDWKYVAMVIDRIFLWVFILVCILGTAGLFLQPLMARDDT
T1 sequence (P12392 whole entry): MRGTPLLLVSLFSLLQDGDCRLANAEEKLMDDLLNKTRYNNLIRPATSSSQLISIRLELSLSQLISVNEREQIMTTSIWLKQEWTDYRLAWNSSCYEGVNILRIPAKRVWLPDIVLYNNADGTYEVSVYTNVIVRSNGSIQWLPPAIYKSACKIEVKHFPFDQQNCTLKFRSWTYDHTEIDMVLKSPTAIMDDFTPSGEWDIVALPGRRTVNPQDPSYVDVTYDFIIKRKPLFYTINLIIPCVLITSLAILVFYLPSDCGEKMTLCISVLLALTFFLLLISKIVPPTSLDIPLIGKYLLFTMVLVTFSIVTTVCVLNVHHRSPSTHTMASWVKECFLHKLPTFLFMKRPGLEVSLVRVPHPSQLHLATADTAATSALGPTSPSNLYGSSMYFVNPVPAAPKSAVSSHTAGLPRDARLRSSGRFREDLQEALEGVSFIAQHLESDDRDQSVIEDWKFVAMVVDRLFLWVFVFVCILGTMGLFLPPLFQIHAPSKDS

On to `CO[C@H]1CC=C2CCN3CCC4=C(CC(=O)OC4)[C@]23C1`, for which the negative-log IC50 (pIC50) in test [1] was 4.00.

Take `COc1cc2c(cc1C(N)=O)[C@]13C[C@H]4OCO[C@H]4C=C1CCN3CC2`: the outcome in test [2] was inactive. The negative logarithm of the IC50 (pIC50) in test [3] was 4.03.

In the case of `COC(=O)c1cc2c(cc1OC)CCN1CCC3=C[C@@H]4OCO[C@@H]4C[C@]321`, the outcome in test [2] was inactive. Also, in test [3], the pIC50 was 4.11.
